Assay results as given in the NIST ThermoML archive (doi:10.1021/je050050p).

Details: Liquid, Vibrating tube method

CN(C)C=O [dimethylformamide]
Details	mass density [kg/m3]
313.12 K, 1008 kPa	930.41
313.12 K, 2010 kPa	931.09
313.12 K, 3012 kPa	931.73
313.12 K, 4008 kPa	932.38
313.12 K, 5004 kPa	933.04
313.12 K, 6002 kPa	933.68
313.12 K, 7002 kPa	934.32
313.12 K, 8004 kPa	934.97
313.12 K, 9000 kPa	935.62
313.12 K, 10004 kPa	936.27
313.12 K, 11004 kPa	936.89
313.12 K, 12004 kPa	937.51
313.12 K, 13005 kPa	938.14
313.12 K, 14007 kPa	938.78
313.12 K, 15002 kPa	939.37
313.12 K, 16012 kPa	940
313.12 K, 17009 kPa	940.59
313.12 K, 18015 kPa	941.19
313.12 K, 19010 kPa	941.79
313.12 K, 20013 kPa	942.42
313.12 K, 21009 kPa	942.99
313.12 K, 22011 kPa	943.58
313.12 K, 23019 kPa	944.17
313.12 K, 24013 kPa	944.75
313.12 K, 25011 kPa	945.35
323.06 K, 1014 kPa	920.89
323.06 K, 2007 kPa	921.59
323.06 K, 3026 kPa	922.27
323.06 K, 4006 kPa	922.95
323.06 K, 5016 kPa	923.62
323.06 K, 6010 kPa	924.3
323.06 K, 7006 kPa	924.99
323.06 K, 8010 kPa	925.64
323.06 K, 9012 kPa	926.32
323.06 K, 10014 kPa	926.99
323.06 K, 11011 kPa	927.65
323.06 K, 12013 kPa	928.31
323.06 K, 13007 kPa	928.97
323.06 K, 14011 kPa	929.62
323.06 K, 15008 kPa	930.29
323.06 K, 16014 kPa	930.92
323.06 K, 17004 kPa	931.54
323.06 K, 18006 kPa	932.19
323.06 K, 19006 kPa	932.82
323.06 K, 20005 kPa	933.44
323.06 K, 21002 kPa	934.07
323.06 K, 22013 kPa	934.7
323.06 K, 23015 kPa	935.31
323.06 K, 24008 kPa	935.92
323.06 K, 25012 kPa	936.53
333 K, 1008 kPa	911.34
333 K, 2018 kPa	912.08
333 K, 3006 kPa	912.78
333 K, 4005 kPa	913.51
333 K, 5005 kPa	914.23
333 K, 6008 kPa	914.97
333 K, 7003 kPa	915.68
333 K, 8009 kPa	916.39
333 K, 9010 kPa	917.11
333 K, 10008 kPa	917.81
333 K, 11008 kPa	918.51
333 K, 12008 kPa	919.2
333 K, 13013 kPa	919.9
333 K, 14006 kPa	920.57
333 K, 15007 kPa	921.24
333 K, 16011 kPa	921.92
333 K, 17019 kPa	922.59
333 K, 18010 kPa	923.27
333 K, 19004 kPa	923.91
333 K, 20012 kPa	924.58
333 K, 21005 kPa	925.24
333 K, 22005 kPa	925.88
333 K, 23014 kPa	926.52
333 K, 24009 kPa	927.19
333 K, 25009 kPa	927.83
342.86 K, 1028 kPa	901.52
342.86 K, 2020 kPa	902.3
342.86 K, 3015 kPa	903.09
342.86 K, 4002 kPa	903.84
342.86 K, 5035 kPa	904.63
342.86 K, 6026 kPa	905.39
342.86 K, 7013 kPa	906.13
342.86 K, 8017 kPa	906.89
342.86 K, 9024 kPa	907.66
342.86 K, 10012 kPa	908.38
342.86 K, 11048 kPa	909.14
342.86 K, 11999 kPa	909.83
342.86 K, 13018 kPa	910.6
342.86 K, 14029 kPa	911.32
342.86 K, 15007 kPa	912.03
342.86 K, 15994 kPa	912.71
342.86 K, 17041 kPa	913.47
342.86 K, 18012 kPa	914.16
342.86 K, 19006 kPa	914.85
342.86 K, 20042 kPa	915.55
342.86 K, 21025 kPa	916.22
342.86 K, 22008 kPa	916.9
342.86 K, 23079 kPa	917.63
342.86 K, 24008 kPa	918.25
342.86 K, 25017 kPa	918.93
352.8 K, 1040 kPa	891.76
352.8 K, 2009 kPa	892.57
352.8 K, 3011 kPa	893.41
352.8 K, 4020 kPa	894.22
352.8 K, 5050 kPa	895.06
352.8 K, 6060 kPa	895.78
352.8 K, 6996 kPa	896.53
352.8 K, 8008 kPa	897.34
352.8 K, 9034 kPa	898.16
352.8 K, 10019 kPa	898.93
352.8 K, 11043 kPa	899.73
352.8 K, 11998 kPa	900.45
352.8 K, 13028 kPa	901.24
352.8 K, 14015 kPa	901.99
352.8 K, 15028 kPa	902.74
352.8 K, 16000 kPa	903.48
352.8 K, 17011 kPa	904.23
352.8 K, 17999 kPa	904.96
352.8 K, 19044 kPa	905.73
352.8 K, 20050 kPa	906.43
352.8 K, 21038 kPa	907.16
352.8 K, 21955 kPa	907.8
352.8 K, 23009 kPa	908.57
352.8 K, 23996 kPa	909.27
352.8 K, 25056 kPa	910.04
362.67 K, 1058 kPa	882.04
362.67 K, 2038 kPa	882.89
362.67 K, 3044 kPa	883.77
362.67 K, 4027 kPa	884.62
362.67 K, 5068 kPa	885.54
362.67 K, 6036 kPa	886.37
362.67 K, 7025 kPa	887.22
362.67 K, 8027 kPa	888.03
362.67 K, 9045 kPa	888.9
362.67 K, 10021 kPa	889.71
362.67 K, 11024 kPa	890.55
362.67 K, 11996 kPa	891.3
362.67 K, 13061 kPa	892.19
362.67 K, 14027 kPa	892.95
362.67 K, 15025 kPa	893.73
362.67 K, 15987 kPa	894.49
362.67 K, 17050 kPa	895.32
362.67 K, 18009 kPa	896.08
362.67 K, 19041 kPa	896.85
362.67 K, 20032 kPa	897.62
362.67 K, 21035 kPa	898.36
362.67 K, 22014 kPa	899.1
362.67 K, 23018 kPa	899.87
362.67 K, 24007 kPa	900.58
362.67 K, 25016 kPa	901.35
